The target in assay [1] is T1, rabbit reticulocyte cells-induced 15-lipoxygenase (Oryctolagus cuniculus, UniProt P12530).
T1 construct: rabbit reticulocyte cells-induced 15-lipoxygenase as a test group; from tissue; host or cells: rabbit reticulocytes
T1 sequence (P12530 1-663): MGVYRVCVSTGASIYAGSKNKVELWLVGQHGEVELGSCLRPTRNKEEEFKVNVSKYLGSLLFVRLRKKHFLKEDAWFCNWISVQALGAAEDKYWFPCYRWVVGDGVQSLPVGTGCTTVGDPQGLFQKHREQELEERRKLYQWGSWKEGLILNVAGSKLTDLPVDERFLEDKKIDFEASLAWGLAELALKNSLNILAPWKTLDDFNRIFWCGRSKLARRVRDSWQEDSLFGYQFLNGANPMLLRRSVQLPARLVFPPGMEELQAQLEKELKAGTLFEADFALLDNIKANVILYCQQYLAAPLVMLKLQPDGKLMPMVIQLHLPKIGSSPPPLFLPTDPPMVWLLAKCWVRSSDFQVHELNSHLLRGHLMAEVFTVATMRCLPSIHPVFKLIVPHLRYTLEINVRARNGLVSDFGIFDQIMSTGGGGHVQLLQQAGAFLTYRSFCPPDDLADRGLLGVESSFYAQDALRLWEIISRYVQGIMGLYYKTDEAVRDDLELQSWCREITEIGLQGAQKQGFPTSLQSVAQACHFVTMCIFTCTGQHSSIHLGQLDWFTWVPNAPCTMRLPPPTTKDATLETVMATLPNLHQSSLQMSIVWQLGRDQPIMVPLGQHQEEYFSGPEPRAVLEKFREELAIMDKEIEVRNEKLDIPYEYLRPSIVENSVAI
In words: In-vitro test on inhibitory effect on 15-lipoxygenase (13-HPODE formation, absorbance 660 nm). It is filed as biochemical. The conditions noted are these: compound 10 uM; 260 μM linolenic acid; 4° C.; PBS pH 7.4; read-out: 15-lipoxygenase Inhibitory level at 10 uM (%). The protocol: (§1) 12-lipoxygenase reacts with arachidonate as a substrate to produce 12-hydroxyeicosatetrenoate (12-HETE) as a product. Accordingly, 12-lipoxygenase activity is evaluated by measuring an amount of generated 12-HETE by spectrometry. Also, 15-lipoxygenase reacts with a linolenic acid as a substrate to produce 13-hydroperoxy-9,11-octadecadienoic acid (13-HPODE) as a product. Accordingly, 15-lipoxygenase activity is evaluated by measuring an amount of generated 13-HPODE by spectrometry.
15-lipoxygenase activity was measured when a concentration of each of the compounds was 10 μM. Each sample was pretreated by using a buffer solution buffer solution (phosphate buffered saline buffer, pH 7.4) at a temperature of 4° C. for 15 minutes, and then 260 μM linolenic acid (a concentration thereof was controlled to be 260 μM during reaction) was added and reacted at a temperature of 4° C. for 10 minutes, and an amount of 13-HPODE as a generated product was measured by absorbance at a wavelength of 660 nm.

Assay [2] addresses T2, human platelet-induced 12-lipoxygenase (Homo sapiens, UniProt P18054).
T2 construct: human platelet-induced 12-lipoxygenase as a negative control; from tissue; host or cells: human platelets
T2 sequence (P18054 1-663): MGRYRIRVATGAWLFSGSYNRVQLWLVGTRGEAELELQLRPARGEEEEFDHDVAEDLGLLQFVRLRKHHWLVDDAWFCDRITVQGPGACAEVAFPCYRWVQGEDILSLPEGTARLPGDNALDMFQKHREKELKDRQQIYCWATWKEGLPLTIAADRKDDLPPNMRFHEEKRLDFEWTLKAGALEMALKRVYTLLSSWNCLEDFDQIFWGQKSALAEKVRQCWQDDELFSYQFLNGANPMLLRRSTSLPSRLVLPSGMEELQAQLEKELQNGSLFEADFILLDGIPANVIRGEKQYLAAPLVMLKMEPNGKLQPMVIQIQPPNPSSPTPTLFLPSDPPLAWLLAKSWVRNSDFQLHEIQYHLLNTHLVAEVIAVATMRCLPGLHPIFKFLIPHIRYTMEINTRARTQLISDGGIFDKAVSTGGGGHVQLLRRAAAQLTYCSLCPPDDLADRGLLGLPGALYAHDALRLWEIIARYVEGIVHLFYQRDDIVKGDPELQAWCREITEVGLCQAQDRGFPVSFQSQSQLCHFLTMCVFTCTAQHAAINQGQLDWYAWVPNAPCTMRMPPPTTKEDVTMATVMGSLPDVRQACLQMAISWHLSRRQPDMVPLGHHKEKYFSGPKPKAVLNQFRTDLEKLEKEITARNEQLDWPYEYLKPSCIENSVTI
The assay can be described thus: In-vitro test on inhibitory effect on 12-lipoxygenase (12-HETE formation, absorbance 570 nm). It counts as biochemical. To be noted: compound 10 uM; 30 μM arachidonate; 25° C.; Tris-HCl pH 7.4; read-out: 12-lipoxygenase Inhibitory level at 10 uM (%). The procedure: as §1
12-lipoxygenase activity was measured when a concentration of each of the compounds was 10 μM. Each sample was pretreated by using a buffer solution (50 mM Tris-HCl, 0.1% Triton X-100, pH 7.4) at a temperature of 25° C. for 15 minutes and then, 30 μM arachidonate (a concentration thereof was controlled to be 30 μM during reaction) was added thereto and reacted at a temperature of 25° C. for 15 minutes, and an amount of 12-HETE as a generated product was measured by absorbance at a wavelength of 570 nm.

The test system of another assay is fibronectin. The assay can be described thus: Pharmaceutical effect test on diabetic nephropathy: fibronectin expression in renal cortex by real-time RT-PCR. It counts as in vivo, rat. The conditions noted are these: streptozotocin-diabetic rats; 200 mg/kg orally once a day for 4 weeks; untreated diabetic 1.4±0.1 times control. The procedure:
Sprague-Dawley rats (n=21, 4 weeks, male) were used as lab models (Central Lab. Animal Inc.). Rats (n=14) having diabetes induced by intraperitoneal administration of 50 mg/kg of streptozotocin were used as a test group, and rats (n=7) intraperitoneally administered with only a solvent (100 mM citric acid buffer solution, pH 4.5) were used as a control. Typically, in rats having diabetes induced by streptozotocin, diabetic nephropathy is induced by hyperglycemia, and one of the symptoms is renal fibrosis, and gene expression of an extracellular matrix protein such as fibronectin is increased. 2 days after the administration of streptozotocin, diabetes was induced in the test group. […]
After the 4-week administration of the compound and PEG, renal cortex tissues were extracted from each of the groups and then, an expression level of fibronectin was measured by a real-time reverse transcription polymerase chain reaction (that is, an amount of mRNA transcribed from fibronectin) (see FIG. 3). The expression level of fibronectin was measured by using a forward primer (5′-[…]-3′; SEQ ID NO: 1) and a reverse primer (5′-[…]-3′; SEQ ID NO: 2). […] For the control, mRNA transcribed from a beta actin gene was used, and measurement results were indicated by dividing an amount of mRNA of fibronectin quantified from the RT-PCT results by an amount of mRNA of beta actin. […]
In general terms: In qPCR the cycle at which signal appears reflects the starting amount.

Assay [3] concerns Sprague-Dawley rats having diabetes induced by streptozotocin. The assay can be described thus: Pharmaceutical effect test on diabetic hyperlipidemia in diabetes animal model (streptozotocin). It counts as in vivo, rat. To be noted: 200 mg/kg orally once a day for four weeks. The protocol:
Sprague-Dawley rats (n=21, 4 weeks, male) were used as lab models (Central Lab. Animal Inc.). Rats (n=14) having diabetes induced by intraperitoneal administration of 50 mg/kg of streptozotocin were used as a test group, and rats (n=7) intraperitoneally administered with only a solvent (100 mM citric acid buffer solution, pH 4.5) were used as a control. Typically, streptozotocin destroys beta cells of the pancreas to induce diabetes, and thus, blood sugar is increased and amounts of cholesterol and triglycerides in serum are increased. 2 days after the administration of streptozotocin, diabetes was induced in the test group. The test group was divided into two groups, and rats of one group were orally administered once a day with 200 mg/kg of (R)-carbamic acid 3-[4-(3,4-dimethoxy-phenyl)-piperazine-1-yl]-3-oxo-1-phenyl-propyl ester for four weeks. The other group was orally administered with 30% polyethylene glycol (PEG) instead of the compound.
After the 4-week administration of the compound and PEG, amounts of total cholesterol and triglycerides in serum of each of the groups were measured and results thereof are shown in FIGS. 1 and 2. In order to measure the amounts of total cholesterol and triglycerides, serum was isolated from the rats and a Hitachi 7600 auto-analyzer was used.

Another assay has as its system TGF-β1. In words: Pharmaceutical effect test on inflammatory reaction in diabetic nephropathy model: TGF-β1 mRNA in renal cortex. It counts as in vivo, rat. The conditions noted are these: streptozotocin-diabetic rats; 200 mg/kg orally once a day for 4 weeks; untreated diabetic 1.6±0.2 times control.
The next assay deals with MCP-1. The assay can be described thus: Pharmaceutical effect test on inflammatory reaction in diabetic nephropathy model: MCP-1 mRNA in renal cortex. It counts as in vivo, rat. To be noted: streptozotocin-diabetic rats; 200 mg/kg orally once a day for 4 weeks; untreated diabetic 3.4±1.0 times control.
A further assay has as its system PAI-1. The assay can be described thus: Pharmaceutical effect test on inflammatory reaction in diabetic nephropathy model: PAI-1 mRNA in renal cortex. It is filed as in vivo, rat. To be noted: streptozotocin-diabetic rats; 200 mg/kg orally once a day for 4 weeks; untreated diabetic 1.8±0.1 times control.

Where a name gives a salt, the structure may show the parent alone.

For `COc1ccc(N2CCN(C(=O)CC(OC(N)=O)c3ccccc3)CC2)cc1OC` (centres unmarked) [Example 1, carbamic acid 3-[4-(3,4-dimethoxy-phenyl)-piperazine-1-yl]-3-oxo-1-phenyl-propyl ester], the inhibition at 10 µM turned out to be 73% in assay [1] and 10% in assay [2].

For the compound `COc1ccc(N2CCN(C(=O)CC(OC(N)=O)c3ccc(F)cc3)CC2)cc1OC` (centres unmarked) [Example 2, carbamic acid 3-[4-(3,4-dimethoxy-phenyl)-piperazine-1-yl]-1-(4-fluoro-phenyl)-3-oxo-propyl ester], the inhibition at 10 µM in assay [1] was 69%; in assay [2], -5%.

In the case of `NC(=O)OC(CC(=O)N1CCN(c2ccc3c(c2)OCO3)CC1)c1ccccc1` (centres unmarked) [Example 3, carbamic acid 3-(4-benzo[1,3]dioxol-5-yl-piperazine-1-yl)-3-oxo-1-phenyl-propyl ester], the inhibition at 10 µM in assay [1] was 85%; in assay [2] it was -8%.

Turning to `COc1ccc(N2CCN(C(=O)CC(OC(N)=O)c3ccc(C(F)(F)F)cc3)CC2)cc1OC` (centres unmarked) [Example 4, carbamic acid 3-[4-(3,4-dimethoxy-phenyl)-piperazine-1-yl]-1-(4-trifluoromethyl-phenyl)-3-oxo-propyl ester; hydrochloride], the inhibition at 10 µM was 48% in assay [1] and 0% in assay [2].

With `COc1ccc(N2CCN(C(=O)CC(OC(N)=O)c3ccc([N+](=O)[O-])cc3)CC2)cc1OC` (centres unmarked) [Example 5, carbamic acid 3-[4-(3,4-dimethoxy-phenyl)-piperazine-1-yl]-1-(4-nitro-phenyl)-3-oxo-propyl ester], the inhibition at 10 µM was 75% in assay [1] and 0% in assay [2].

For `NC(=O)O[C@H](CC(=O)N1CCN(c2ccc(Cl)cc2)CC1)c1ccccc1` [Example 6, (R)-carbamic acid 3-[4-(4-chloro-phenyl)-piperazine-1-yl]-3-oxo-1-phenyl-propyl ester], the inhibition at 10 µM in assay [1] is 114%; in assay [2], 11%.

For the compound `COc1ccc(N2CCN(C(=O)C[C@H](OC(N)=O)c3ccccc3)CC2)cc1OC` [Example 7, (S)-carbamic acid 3-[4-(3,4-dimethoxy-phenyl)-piperazine-1-yl]-3-oxo-1-phenyl-propyl ester], the inhibition at 10 µM was determined as 69% in assay [1] and 2% in assay [2].

For the compound `COc1ccc(N2CCN(C(=O)C[C@@H](OC(N)=O)c3ccccc3)CC2)cc1OC` [Example 8, (R)-carbamic acid 3-[4-(3,4-dimethoxy-phenyl)-piperazine-1-yl]-3-oxo-1-phenyl-propyl ester], the “expression level of fibronectin of the renal cortex (mRNA / beta actin mRNA) relative to control” value in the assay on fibronectin came to 1.2±0.1 times. Moreover, the inhibition at 10 µM worked out at 79% in assay [1] and 15% in assay [2]. For the same compound, the “concentration of total cholesterol in serum” value in assay [3] (untreated diabetic 120±13, control 62±5 mg/dl) came to 66 ± 9 mg/dL. In addition, the “concentration of triglyceride in serum” value in assay [3] (untreated diabetic 760±162 mg/dl) turned out to be 126 ± 44 mg/dL. Further, in the assay on TGF-β1, the “expression level of TGF-β1 gene in the renal cortex relative to control” value is given as 1.3±0.2 times. Further, in the assay on MCP-1, the “expression level of MCP-1 gene in the renal cortex relative to control” value is 1.6±0.3 times. For the same compound, the “expression level of PAI-1 gene in the renal cortex relative to control” value with PAI-1 was found to be 1.1±0.2 times.

With `COc1ccc(N2CCN(C(C)CC(OC(N)=O)c3ccccc3)CC2)cc1OC` (centres unmarked) [Example 9, carbamic acid 3-[4-(3,4-dimethoxy-phenyl)-piperazine-1-yl]-1-phenyl-butyl ester], the inhibition at 10 µM in assay [1] worked out at 62%; in assay [2], 0%.

For the compound `COc1ccc(N2CCN(C(=O)CC(OC(N)=O)c3ccc(Cl)cc3)CC2)cc1OC` (centres unmarked) [Example 10, carbamic acid 3-[4-(3,4-dimethoxy-phenyl)-piperazine-1-yl]-1-(4-chloro-phenyl)-3-oxo-propyl ester], the results for the inhibition at 10 µM in assay [1] and in assay [2] were 72% and 7%, respectively.

The values are drawn from US8648083B2, “Method of treating diabetic hyperlipidemia or hyperlipidemia with carbamoyloxy arylalkanoyl arylpiperazine compounds” (SK Biopharmaceuticals Co., Ltd., priority 2010, dated 2014).
